Laboratory results as given in US20240210412A1, “SULFONYL-TRIAZOLE COMPOUNDS USEFUL AS LIGANDS AND INHIBITORS OF PROSTAGLANDIN REDUCTASE 2” (University of Virginia Patent Foundation, priority 2021, published 2024).

What was measured:
Assay in all cases: SILAC LC-MS ABPP
Format in all cases: cell-based
Conditions in all cases: 25 μM 2 h, live DM93 cells
Q9BUT1 = target: T1, Q9BUT1 (Homo sapiens, UniProt Q9BUT1)
T1 construct: endogenous in cells; host or cells: DM93 cells (SILAC), treated live; soluble proteome analysed
T1 sequence (Q9BUT1 whole entry): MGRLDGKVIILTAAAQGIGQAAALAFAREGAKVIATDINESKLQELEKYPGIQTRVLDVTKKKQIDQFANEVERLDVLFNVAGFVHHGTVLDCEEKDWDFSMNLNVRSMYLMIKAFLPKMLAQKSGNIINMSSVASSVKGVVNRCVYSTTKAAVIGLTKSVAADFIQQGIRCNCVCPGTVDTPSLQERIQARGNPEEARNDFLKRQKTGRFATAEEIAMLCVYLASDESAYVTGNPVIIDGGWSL
Procedure, shortened: (§1)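 HHS-475 probe (100 μM, 2 h, 37 °C) was applied after a 2 h pretreatment with either 25 μM SuTEx ligand (heavy DM93 cells) or DMSO (light). Probe-labelled soluble proteins were conjugated to desthiobiotin-azide, combined equally, digested and quantified by LC-MS/MS.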

Q9Y5K6 = target: T2, Q9Y5K6 (Homo sapiens, UniProt Q9Y5K6)
T2 construct: endogenous in cells; host or cells: DM93 cells (SILAC)
Procedure, shortened: as §1

P26599 = target: T3, P26599 (Homo sapiens, UniProt P26599)
T3 construct: endogenous in cells; host or cells: DM93 (SILAC)
T3 sequence (P26599 whole entry): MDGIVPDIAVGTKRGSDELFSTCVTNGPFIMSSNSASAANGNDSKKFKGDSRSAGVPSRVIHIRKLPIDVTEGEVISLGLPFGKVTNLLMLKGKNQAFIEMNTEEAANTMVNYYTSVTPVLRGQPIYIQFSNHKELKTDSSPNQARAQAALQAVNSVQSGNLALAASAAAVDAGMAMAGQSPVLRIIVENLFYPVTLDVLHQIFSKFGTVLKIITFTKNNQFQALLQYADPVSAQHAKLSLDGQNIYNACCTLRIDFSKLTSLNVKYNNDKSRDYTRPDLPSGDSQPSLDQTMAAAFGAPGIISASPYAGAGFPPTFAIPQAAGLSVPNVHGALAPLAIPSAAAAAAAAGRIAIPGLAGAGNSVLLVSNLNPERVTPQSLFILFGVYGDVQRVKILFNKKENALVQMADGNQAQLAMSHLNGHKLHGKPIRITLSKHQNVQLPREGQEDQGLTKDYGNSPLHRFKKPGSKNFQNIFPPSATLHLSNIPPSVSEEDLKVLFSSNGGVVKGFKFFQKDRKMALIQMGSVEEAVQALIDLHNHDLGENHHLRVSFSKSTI
Procedure, shortened: as §1

Q8NBF2 = target: T4, Q8NBF2 (Homo sapiens, UniProt Q8NBF2)
T4 construct: endogenous in cells; host or cells: DM93 cells (SILAC), live-cell treatment
Procedure, shortened: as §1

Q9BXJ9 = target: T5, Q9BXJ9 (Homo sapiens, UniProt Q9BXJ9)
T5 construct: endogenous in cells; host or cells: DM93 cells (SILAC), treated live; soluble proteome analysed
T5 sequence (Q9BXJ9 whole entry): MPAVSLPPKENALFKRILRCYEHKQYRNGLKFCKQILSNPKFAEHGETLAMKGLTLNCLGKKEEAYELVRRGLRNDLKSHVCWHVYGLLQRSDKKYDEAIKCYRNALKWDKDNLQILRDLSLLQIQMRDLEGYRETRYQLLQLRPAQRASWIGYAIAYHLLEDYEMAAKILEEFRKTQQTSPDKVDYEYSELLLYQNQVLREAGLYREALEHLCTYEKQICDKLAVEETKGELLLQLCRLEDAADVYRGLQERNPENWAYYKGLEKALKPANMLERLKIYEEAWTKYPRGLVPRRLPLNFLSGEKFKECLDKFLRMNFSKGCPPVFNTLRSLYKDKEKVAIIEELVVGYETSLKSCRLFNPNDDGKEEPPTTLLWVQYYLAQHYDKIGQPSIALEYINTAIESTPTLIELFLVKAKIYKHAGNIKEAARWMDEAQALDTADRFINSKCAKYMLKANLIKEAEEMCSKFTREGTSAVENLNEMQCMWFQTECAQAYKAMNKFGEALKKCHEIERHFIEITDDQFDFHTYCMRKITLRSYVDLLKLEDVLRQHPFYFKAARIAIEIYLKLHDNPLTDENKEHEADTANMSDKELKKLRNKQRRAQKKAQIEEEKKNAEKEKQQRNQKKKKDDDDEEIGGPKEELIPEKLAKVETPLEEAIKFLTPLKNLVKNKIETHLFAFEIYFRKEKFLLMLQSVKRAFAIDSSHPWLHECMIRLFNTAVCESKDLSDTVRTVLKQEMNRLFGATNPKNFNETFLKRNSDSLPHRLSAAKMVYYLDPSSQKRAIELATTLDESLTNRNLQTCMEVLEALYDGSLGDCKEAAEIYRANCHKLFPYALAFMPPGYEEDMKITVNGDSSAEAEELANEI
Procedure, shortened: as §1

O75521 = target: T6, O75521 (Homo sapiens, UniProt O75521)
T6 construct: endogenous in cells; host or cells: DM93 cells (SILAC)
Procedure, shortened: as §1

Q9UDY2 = target: T7, Q9UDY2 (Homo sapiens, UniProt Q9UDY2)
T7 construct: endogenous in cells; host or cells: DM93 cells (SILAC)
Procedure, shortened: as §1

P54578 = target: T8, P54578 (Homo sapiens, UniProt P54578)
T8 construct: endogenous in cells; host or cells: DM93 cells (SILAC)
Procedure, shortened: as §1

Q96A72 = target: T9, Q96A72 (Homo sapiens, UniProt Q96A72)
T9 construct: endogenous in cells; host or cells: DM93 cells (SILAC), treated live; soluble proteome analysed
T9 sequence (Q96A72 whole entry): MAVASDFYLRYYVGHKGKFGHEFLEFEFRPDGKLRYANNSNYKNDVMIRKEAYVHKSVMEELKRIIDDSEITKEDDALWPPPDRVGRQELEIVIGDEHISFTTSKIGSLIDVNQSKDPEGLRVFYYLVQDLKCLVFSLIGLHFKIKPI
Procedure, shortened: as §1

Q13107 = target: T10, Q13107 (Homo sapiens, UniProt Q13107)
T10 construct: performing SuTEx compound screening directly in cells; endogenous in cells; host or cells: DM93 cells (SILAC), soluble fraction
Procedure, shortened: as §1

Q9UQ35 = target: T11, Q9UQ35 (Homo sapiens, UniProt Q9UQ35)
T11 construct: endogenous in cells; host or cells: DM93 cells (SILAC)
Procedure, shortened: as §1

Q14694 = target: T12, Q14694 (Homo sapiens, UniProt Q14694)
T12 construct: performing SuTEx compound screening directly in cells; endogenous in cells; host or cells: DM93 cells (SILAC), soluble fraction
Procedure, shortened: as §1

O43823 = target: T13, O43823 (Homo sapiens, UniProt O43823)
T13 construct: endogenous in cells; host or cells: DM93
Procedure, shortened: as §1

Q14980 = target: T14, Q14980 (Homo sapiens, UniProt Q14980)
T14 construct: performing SuTEx compound screening directly in cells; endogenous in cells; host or cells: DM93 cells (SILAC), soluble fraction
T14 sequence (Q14980 whole entry): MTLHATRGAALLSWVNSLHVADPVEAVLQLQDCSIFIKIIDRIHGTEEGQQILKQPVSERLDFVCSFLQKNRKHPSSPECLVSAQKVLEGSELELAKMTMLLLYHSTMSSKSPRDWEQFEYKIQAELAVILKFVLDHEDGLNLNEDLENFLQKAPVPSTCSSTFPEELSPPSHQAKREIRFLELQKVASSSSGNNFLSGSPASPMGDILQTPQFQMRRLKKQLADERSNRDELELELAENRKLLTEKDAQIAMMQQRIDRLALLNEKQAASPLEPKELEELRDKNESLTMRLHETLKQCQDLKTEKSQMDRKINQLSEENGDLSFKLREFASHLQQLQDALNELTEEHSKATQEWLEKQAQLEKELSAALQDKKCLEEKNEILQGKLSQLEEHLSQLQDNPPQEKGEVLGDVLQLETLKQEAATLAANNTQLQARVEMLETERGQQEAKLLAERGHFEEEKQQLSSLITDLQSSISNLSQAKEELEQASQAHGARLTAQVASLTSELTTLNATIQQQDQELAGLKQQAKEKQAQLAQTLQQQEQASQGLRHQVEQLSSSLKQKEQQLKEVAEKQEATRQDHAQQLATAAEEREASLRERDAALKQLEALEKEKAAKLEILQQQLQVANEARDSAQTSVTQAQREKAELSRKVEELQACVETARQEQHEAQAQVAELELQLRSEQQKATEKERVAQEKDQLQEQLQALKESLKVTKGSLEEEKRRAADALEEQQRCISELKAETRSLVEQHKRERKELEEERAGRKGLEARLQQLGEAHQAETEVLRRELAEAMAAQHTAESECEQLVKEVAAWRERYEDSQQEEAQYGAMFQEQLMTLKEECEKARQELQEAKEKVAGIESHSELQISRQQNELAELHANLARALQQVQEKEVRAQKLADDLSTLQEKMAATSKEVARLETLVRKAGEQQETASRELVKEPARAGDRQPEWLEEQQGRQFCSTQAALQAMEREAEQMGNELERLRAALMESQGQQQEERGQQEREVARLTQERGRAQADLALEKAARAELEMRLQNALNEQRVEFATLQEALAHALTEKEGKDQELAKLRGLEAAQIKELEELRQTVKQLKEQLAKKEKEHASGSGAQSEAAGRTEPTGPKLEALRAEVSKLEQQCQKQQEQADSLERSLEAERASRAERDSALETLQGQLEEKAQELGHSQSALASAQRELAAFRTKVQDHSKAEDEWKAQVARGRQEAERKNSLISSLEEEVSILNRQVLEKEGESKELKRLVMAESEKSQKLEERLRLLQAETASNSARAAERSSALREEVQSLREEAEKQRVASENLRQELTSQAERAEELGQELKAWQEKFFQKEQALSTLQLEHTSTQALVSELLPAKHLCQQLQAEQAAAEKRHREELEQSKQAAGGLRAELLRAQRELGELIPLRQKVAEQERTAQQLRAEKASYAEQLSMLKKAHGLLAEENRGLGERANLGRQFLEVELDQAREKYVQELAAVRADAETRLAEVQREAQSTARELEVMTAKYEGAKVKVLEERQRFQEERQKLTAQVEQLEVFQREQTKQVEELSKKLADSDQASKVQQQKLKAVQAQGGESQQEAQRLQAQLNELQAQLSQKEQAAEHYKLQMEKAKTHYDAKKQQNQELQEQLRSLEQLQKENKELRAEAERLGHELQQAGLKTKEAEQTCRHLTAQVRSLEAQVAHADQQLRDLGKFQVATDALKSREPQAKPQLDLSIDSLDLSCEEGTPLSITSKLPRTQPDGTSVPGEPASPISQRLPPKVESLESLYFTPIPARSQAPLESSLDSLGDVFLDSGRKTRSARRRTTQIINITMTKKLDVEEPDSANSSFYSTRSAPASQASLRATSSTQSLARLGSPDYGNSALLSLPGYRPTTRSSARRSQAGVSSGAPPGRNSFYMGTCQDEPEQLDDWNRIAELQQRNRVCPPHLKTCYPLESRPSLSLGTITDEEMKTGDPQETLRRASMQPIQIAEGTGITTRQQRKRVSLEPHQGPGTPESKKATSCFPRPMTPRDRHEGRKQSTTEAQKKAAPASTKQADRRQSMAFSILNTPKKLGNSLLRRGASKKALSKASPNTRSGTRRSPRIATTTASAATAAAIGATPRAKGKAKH
Procedure, shortened: as §1

Q04323 = target: T15, Q04323 (Homo sapiens, UniProt Q04323)
T15 construct: performing SuTEx compound screening directly in cells; endogenous in cells; host or cells: DM93 cells (SILAC)
T15 sequence (Q04323 whole entry): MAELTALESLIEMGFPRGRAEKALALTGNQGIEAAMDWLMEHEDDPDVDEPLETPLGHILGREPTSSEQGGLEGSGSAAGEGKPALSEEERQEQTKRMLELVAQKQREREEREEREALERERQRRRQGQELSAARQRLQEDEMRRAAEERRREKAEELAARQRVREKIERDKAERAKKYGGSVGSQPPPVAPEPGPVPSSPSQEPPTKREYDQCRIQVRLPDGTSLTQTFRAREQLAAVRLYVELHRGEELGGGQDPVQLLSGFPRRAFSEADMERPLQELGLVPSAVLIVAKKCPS
Procedure, shortened: as §1

Q12931 = target: T16, Q12931 (Homo sapiens, UniProt Q12931)
T16 construct: performing SuTEx compound screening directly in cells; endogenous in cells; host or cells: DM93 cells (SILAC)
Procedure, shortened: as §1

Q9UMX5 = target: T17, Q9UMX5 (Homo sapiens, UniProt Q9UMX5)
T17 construct: endogenous in cells; host or cells: DM93 cells (SILAC)
T17 sequence (Q9UMX5 32-172): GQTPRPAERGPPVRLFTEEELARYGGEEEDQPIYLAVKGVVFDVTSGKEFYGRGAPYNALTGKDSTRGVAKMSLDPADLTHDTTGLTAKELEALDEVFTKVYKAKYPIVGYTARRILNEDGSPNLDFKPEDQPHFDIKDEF
Procedure, shortened: as §1

Q9P2B4 = target: T18, Q9P2B4 (Homo sapiens, UniProt Q9P2B4)
T18 construct: endogenous in cells; host or cells: DM93 cells (SILAC)
T18 sequence (Q9P2B4 whole entry): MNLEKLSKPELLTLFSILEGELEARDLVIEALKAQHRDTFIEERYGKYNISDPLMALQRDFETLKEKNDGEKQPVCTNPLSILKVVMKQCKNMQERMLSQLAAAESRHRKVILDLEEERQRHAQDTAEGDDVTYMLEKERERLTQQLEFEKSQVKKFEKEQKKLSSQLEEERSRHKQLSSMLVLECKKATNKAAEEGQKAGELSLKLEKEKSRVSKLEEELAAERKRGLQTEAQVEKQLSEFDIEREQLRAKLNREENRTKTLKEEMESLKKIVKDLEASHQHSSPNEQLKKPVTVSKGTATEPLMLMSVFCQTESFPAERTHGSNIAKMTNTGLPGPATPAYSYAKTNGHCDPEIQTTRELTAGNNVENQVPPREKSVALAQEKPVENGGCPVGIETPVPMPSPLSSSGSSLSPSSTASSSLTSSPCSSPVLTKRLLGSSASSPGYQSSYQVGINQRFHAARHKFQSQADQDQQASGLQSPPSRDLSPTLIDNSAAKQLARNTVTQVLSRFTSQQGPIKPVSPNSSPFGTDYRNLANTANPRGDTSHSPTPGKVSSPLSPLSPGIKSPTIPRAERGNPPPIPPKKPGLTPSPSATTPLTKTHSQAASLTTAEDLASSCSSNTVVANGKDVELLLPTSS
Procedure, shortened: as §1

O=C(NC1CC1)c1ccc(S(=O)(=O)n2cncn2)cc1 [HHS-0101, 4-((1H-1,2,4-triazol-1-yl)sulfonyl)-N-cyclopropylbenzamide]
liganded tyrosine site 49 (Q9BUT1): HHS0101.Y (tyrosine sites that showed >80% reductions (SR >5) in probe labeling in cells treated with compounds (liganded sites))
liganded tyrosine site 361 (Q9Y5K6): HHS0101.Y|HHS0201.Y|HHS0401.Y (tyrosine sites that showed >80% reductions (SR >5) in probe labeling in cells treated with compounds (liganded sites))
liganded tyrosine site 430 (P26599): HHS0101.Y|HHS0201.Y|HHS0401.Y (tyrosine sites that showed >80% reductions (SR >5) in probe labeling in cells treated with compounds (liganded sites))
liganded tyrosine site 23 (Q8NBF2): HHS0101.Y (tyrosine sites that showed >80% reductions (SR >5) in probe labeling in cells treated with compounds (liganded sites))
liganded tyrosine site 86 (Q9BXJ9): HHS0101.Y|HHS0701.Y (tyrosine sites that showed >80% reductions (SR >5) in probe labeling in cells treated with compounds (liganded sites))

O=C(NCC1CC1)c1ccc(S(=O)(=O)n2cncn2)cc1 [HHS-0201, 4-((1H-1,2,4-triazol-1-yl)sulfonyl)-N-(cyclopropylmethyl)benzamide]
liganded tyrosine site 285 (O75521): HHS0201.Y|HHS0301.Y|HHS0401.Y (tyrosine sites that showed >80% reductions (SR >5) in probe labeling in cells treated with compounds (liganded sites))
liganded tyrosine site 423 (Q9UDY2): HHS0201.Y|HHS0301.Y (tyrosine sites that showed >80% reductions (SR >5) in probe labeling in cells treated with compounds (liganded sites))
liganded tyrosine site 401 (P54578): HHS0201.Y (tyrosine sites that showed >80% reductions (SR >5) in probe labeling in cells treated with compounds (liganded sites))
liganded tyrosine site 36 (Q96A72): HHS0201.Y (tyrosine sites that showed >80% reductions (SR >5) in probe labeling in cells treated with compounds (liganded sites))
liganded tyrosine site 192 (Q13107): HHS0201.Y|HHS0301.Y (tyrosine sites that showed >80% reductions (SR >5) in probe labeling in cells treated with compounds (liganded sites))

O=C(NC1CCCCC1)c1ccc(S(=O)(=O)n2cncn2)cc1 [HHS-0301, 4-((1H-1,2,4-triazol-1-yl)sulfonyl)-N-cyclohexylbenzamide]
liganded tyrosine site 2390 (Q9UQ35): HHS0301.Y (tyrosine sites that showed >80% reductions (SR >5) in probe labeling in cells treated with compounds (liganded sites))
liganded tyrosine site 359 (Q14694): HHS0301.Y (tyrosine sites that showed >80% reductions (SR >5) in probe labeling in cells treated with compounds (liganded sites))

O=C(NCc1ccccc1)c1ccc(S(=O)(=O)n2cncn2)cc1 [HHS-0401, 4-((1H-1,2,4-triazol-1-yl)sulfonyl)-N-benzylbenzamide]
liganded tyrosine site 436 (O43823): HHS0401.Y (tyrosine sites that showed >80% reductions (SR >5) in probe labeling in cells treated with compounds (liganded sites))
liganded tyrosine site 1836 (Q14980): HHS0401.Y (tyrosine sites that showed >80% reductions (SR >5) in probe labeling in cells treated with compounds (liganded sites))

O=C(c1ccc(S(=O)(=O)n2cncn2)cc1)N1CCC(c2ccccc2)CC1 [HHS-0701, (4-((1H-1,2,4-triazol-1-yl)sulfonyl)phenyl)(4-phenylpiperidin-1-yl)methanone]
liganded tyrosine site 179 (Q04323): HHS0701.Y (tyrosine sites that showed >80% reductions (SR >5) in probe labeling in cells treated with compounds (liganded sites))
liganded tyrosine site 559 (Q12931): HHS0701.Y (tyrosine sites that showed >80% reductions (SR >5) in probe labeling in cells treated with compounds (liganded sites))
liganded tyrosine site 82 (Q9UMX5): HHS0701.Y (tyrosine sites that showed >80% reductions (SR >5) in probe labeling in cells treated with compounds (liganded sites))
liganded tyrosine site 343 (Q9P2B4): HHS0701.Y (tyrosine sites that showed >80% reductions (SR >5) in probe labeling in cells treated with compounds (liganded sites))
